Measured values published in US20240287138A1, “CYCLIC PEPTIDES FOR INHIBITING TNF RECEPTOR 1 ACTIVITY” (Merck Sharp & Dohme LLC, priority 2023, published 2024).
Numbered stars: 1 amine (or outer) side, 2 acyl side, 3 side chain; on linkers, the order of the positions; unused ones are H or OH. Bridge positions count the residues as written; N and C are the ends. Square brackets hold non-standard residues; d marks the D form. Peptide text beside a SMILES is read from it. * marks the point of attachment. Trp(βS-Me,7-OMe) = COc1cccc2c([C@H](C)[C@H](N)C(=O)O)c[nH]c12; Morpholine(3S-CO,6,6-Me2) = CC1(C)CN[C@H](C(=O)O)CO1; Trp(7-CN) = N#Cc1cccc2c(C[C@H](N)C(=O)O)c[nH]c12; Trp(7-Cl) = N[C@@H](Cc1c[nH]c2c(Cl)cccc12)C(=O)O; Phe(3-CONH2) = NC(=O)c1cccc(C[C@H](N)C(=O)O)c1; Phe(4-CONH2) = NC(=O)c1ccc(C[C@H](N)C(=O)O)cc1; Phe(4-COOH) = N[C@@H](Cc1ccc(C(=O)O)cc1)C(=O)O; Trp(7-aza) = N[C@@H](Cc1c[nH]c2ncccc12)C(=O)O; Pip(5R-OH) = O=C(O)[C@@H]1CC[C@@H](O)CN1; X1 = O=C([C@@H]1CC[C@H](N[*:1])C1)[*:2]; Isoxazole(3-carbonyl) = O=C(c1ccon1)*; Pip(4-aza) = O=C(O)[C@@H]1CNCCN1; hPhe = N[C@@H](CCc1ccccc1)C(=O)O; 4Pal = N[C@@H](Cc1ccncc1)C(=O)O; NMeE = CN[C@@H](CCC(=O)O)C(=O)O; dHyp = O=C(O)[C@H]1C[C@H](O)CN1; X7 = CC[C@@H](C(=O)[*:1])[*:2]; Ahp(2) = CCCCC[C@H](N)C(=O)O; αMeS = C[C@](N)(CO)C(=O)O; Carboxymethyl = O=C(O)C*; Nle = CCCC[C@H](N)C(=O)O; Dab = NCC[C@H](N)C(=O)O; Sar = CNCC(=O)O

What was measured:
[1] = molecular target: T1, human soluble TNFR1 (sTNFR1) (Homo sapiens, UniProt P19438); assay: Human sTNFR1-peptide displacement assay (LanthaScreen Eu TR-FRET binding assay)
T1 construct: made in house; host or cells: Sf21 (baculovirus)
T1 sequence (P19438 with tags, fused parts or gaps): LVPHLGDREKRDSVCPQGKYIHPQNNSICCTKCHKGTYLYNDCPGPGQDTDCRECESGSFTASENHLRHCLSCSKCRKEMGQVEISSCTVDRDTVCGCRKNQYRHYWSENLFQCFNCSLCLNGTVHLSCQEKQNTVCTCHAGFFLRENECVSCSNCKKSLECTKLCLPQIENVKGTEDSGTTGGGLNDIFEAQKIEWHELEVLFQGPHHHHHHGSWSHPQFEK
Outline: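 Readout is the 665/615 nm TR-FRET ratio (Eu anti-His donor, streptavidin-Alexa647 acceptor), normalized to DMSO and saturating displacer, fit by Morrison-based five-parameter logistic for Kd^app. His-tagged sTNFR1 (1-211) prebound to 100 nM biotinylated peptide SEQ ID NO.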

[2] = molecular target: T2, human TNFR1 extracellular domain (ECD) protein (Homo sapiens, UniProt P19438); assay: SPR binding affinity to captured human TNFR1 ECD
T2 construct: HRV 3C protease cleavage site (C); 6His (C, cleaved yes); made in house; host or cells: Sf21 insect cells (baculovirus), secreted
T2 sequence (P19438 30-211): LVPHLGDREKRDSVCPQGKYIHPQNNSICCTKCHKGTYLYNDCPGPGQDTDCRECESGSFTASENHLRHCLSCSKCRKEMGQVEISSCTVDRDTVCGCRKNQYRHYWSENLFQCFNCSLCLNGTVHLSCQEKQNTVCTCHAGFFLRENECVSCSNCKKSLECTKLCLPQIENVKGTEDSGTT
Outline: (§1)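 SPR kinetics: peptides over captured avi-biotinylated receptor ECDs, TNFR1 for affinity, TNFR2 run in parallel for off-target binding. Running buffer HEPES pH 7.4 with 150 mM NaCl, 3 mM EDTA, 0.05% P20, 2% DMSO; surface regenerated between analytes. Affinity derived from kon/koff.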

human TNFR2 ECD protein = molecular target: T3, human TNFR2 ECD protein (Homo sapiens, UniProt P20333); assay: SPR off-target binding (selectivity) to human TNFR2 ECD
T3 construct: HRV 3C protease cleavage site (C); 6His (C, cleaved yes); made in house; host or cells: Sf21 insect cells (baculovirus), secreted
T3 sequence (P20333 23-257): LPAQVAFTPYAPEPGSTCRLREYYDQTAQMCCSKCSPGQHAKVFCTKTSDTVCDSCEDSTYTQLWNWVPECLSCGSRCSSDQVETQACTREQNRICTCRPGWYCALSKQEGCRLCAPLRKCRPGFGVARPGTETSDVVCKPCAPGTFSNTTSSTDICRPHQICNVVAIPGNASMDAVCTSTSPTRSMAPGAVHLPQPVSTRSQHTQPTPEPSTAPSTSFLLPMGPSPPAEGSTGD
Outline: as §1

| Structure (SMILES) | IC50 [1] [nM] | Kd [2] [nM] | Kd (human TNFR2 ECD protein) [nM] | Kd [1] [nM] |
| --- | --- | --- | --- | --- |
| CCCC[C@@H]1NC(=O)[C@H](CC)SC[C@@H](C(N)=O)NC(=O)[C@H]([C@@H](C)c2c[nH]c3c(OC)cccc23)NC(=O)CN(C)C(=O)[C@H](Cc2ccc(O)cc2)NC(=O)[C@H](Cc2ccc(C(N)=O)cc2)NC(=O)[C@](C)(CO)NC(=O)[C@H](Cc2c[nH]c3c(Cl)cccc23)NC(=O)[C@H](Cc2ccc(C(=O)O)cc2)NC(=O)[C@H](CC(N)=O)NC(=O)[C@H](CCC(=O)O)N(C)C(=O)[C@H](Cc2c[nH]c3ncccc23)NC(=O)[C@@H]2CC[C@@H](O)CN2C(=O)[C@H](Cc2ccncc2)NC1=O [SEQ ID NO. 168] ([Nle][4Pal][Pip(5R-OH)][Trp(7-aza)][NMeE]N[Phe(4-COOH)][Trp(7-Cl)][αMeS][Phe(4-CONH2)]Y[Sar][Trp(βS-Me,7-OMe)]C-NH2; linker N-14 via X7) | 0.3 | 0.37 | > 1000 | – |
| COc1cccc2c([C@H](C)[C@@H]3NC(=O)CN(C)C(=O)[C@H](Cc4cccc(C(N)=O)c4)NC(=O)[C@H](Cc4ccc(C(N)=O)cc4)NC(=O)[C@](C)(CO)NC(=O)[C@H](Cc4c[nH]c5c(Cl)cccc45)NC(=O)[C@H](Cc4ccncc4)NC(=O)[C@H](CC(N)=O)NC(=O)[C@H]4C[C@H](O)CN4C(=O)[C@H](Cc4c[nH]c5ccccc45)NC(=O)[C@@H]4CC[C@@H](O)CN4C(=O)[C@H](Cc4ccncc4)NC(=O)[C@H](CCNC(=O)c4ccon4)NC(=O)[C@@H]4CC[C@@H](C4)NC3=O)c[nH]c12 [SEQ ID NO. 169] (cyclo([4Pal][Trp(7-Cl)][αMeS][Phe(4-CONH2)][Phe(3-CONH2)][Sar][Trp(βS-Me,7-OMe)][X1][Dab](Isoxazole(3-carbonyl))[4Pal][Pip(5R-OH)]W[dHyp]N)) | – | 0.08 | > 1000 | 0.16 |
| CCCC[C@@H]1NC(=O)CSC[C@@H](C(N)=O)NC(=O)[C@H]([C@@H](C)c2c[nH]c3c(OC)cccc23)NC(=O)CN(C)C(=O)[C@H](Cc2ccc(O)cc2)NC(=O)[C@H](Cc2ccc(C(=O)O)cc2)NC(=O)[C@](C)(CO)NC(=O)[C@H](Cc2c[nH]c3c(Cl)cccc23)NC(=O)[C@H](Cc2ccncc2)NC(=O)[C@H](CC(N)=O)NC(=O)[C@H](CCC(=O)O)N(C)C(=O)[C@H](Cc2c[nH]c3ncccc23)NC(=O)[C@@H]2CNCCN2C(=O)[C@H](CCc2ccccc2)NC1=O [SEQ ID NO. 172] ({CH2CO}-[Nle][hPhe][Pip(4-aza)][Trp(7-aza)][NMeE]N[4Pal][Trp(7-Cl)][αMeS][Phe(4-COOH)]Y[Sar][Trp(βS-Me,7-OMe)]C-NH2; thioether N-14) | 0.63 | 0.2 | > 1000 | 0.57 |
| CCCCC[C@@H]1NC(=O)[C@@H]2CC[C@@H](C2)NC(=O)[C@H]([C@@H](C)c2c[nH]c3c(OC)cccc23)NC(=O)CN(C)C(=O)[C@H](Cc2cccc(C(N)=O)c2)NC(=O)[C@H](Cc2ccc(C(N)=O)cc2)NC(=O)[C@](C)(CO)NC(=O)[C@H](Cc2c[nH]c3c(C#N)cccc23)NC(=O)[C@H](Cc2ccncc2)NC(=O)[C@H](CC(N)=O)NC(=O)[C@H]2C[C@H](O)CN2C(=O)[C@H](Cc2c[nH]c3ccccc23)NC(=O)[C@@H]2CNCCN2C(=O)[C@H](Cc2ccncc2)NC1=O [SEQ ID NO. 174] (cyclo([4Pal][Trp(7-CN)][αMeS][Phe(4-CONH2)][Phe(3-CONH2)][Sar][Trp(βS-Me,7-OMe)][X1][Ahp(2)][4Pal][Pip(4-aza)]W[dHyp]N)) | – | 0.01 | > 1000 | 0.06 |
| CCCC[C@@H]1NC(=O)CSC[C@@H](C(N)=O)NC(=O)[C@H]([C@@H](C)c2c[nH]c3c(OC)cccc23)NC(=O)CN(C)C(=O)[C@H](Cc2ccc(O)cc2)NC(=O)[C@H](Cc2ccc(C(=O)O)cc2)NC(=O)[C@](C)(CO)NC(=O)[C@H](Cc2c[nH]c3c(Cl)cccc23)NC(=O)[C@H](Cc2ccc(OCC(=O)O)cc2)NC(=O)[C@H](CC(N)=O)NC(=O)[C@H](CCC(=O)O)N(C)C(=O)[C@H](Cc2c[nH]c3ccccc23)NC(=O)[C@@H]2COC(C)(C)CN2C(=O)[C@H](Cc2ccncc2)NC1=O [SEQ ID NO. 179] ({CH2CO}-[Nle][4Pal][Morpholine(3S-CO,6,6-Me2)]W[NMeE]NY(Carboxymethyl)[Trp(7-Cl)][αMeS][Phe(4-COOH)]Y[Sar][Trp(βS-Me,7-OMe)]C-NH2; thioether N-14) | 0.5 | 0.14 | > 1000 | 0.29 |
